This is an account of results in article PMC7216583 (Parasites & Vectors, 2020).

Counter-ions that a name gives are not always drawn. Like-named read-outs stand apart in the source and are kept apart here.

The subject of one series is ErbB1. Further details: method as in S-inhibitor catalog. Conditions: vendor brief description; ref S-inhibitor catalog; cited from earlier work.
The subject of the next series is ErbB2. Further details: method as in S-inhibitor catalog. Conditions: vendor brief description; ref S-inhibitor catalog; cited from earlier work.
Series [1] deals with Toxoplasma gondii RH-2F tachyzoites. The experiment in a line: microbe, parasite or virus in culture. Particulars: 72 h.
Series [2] deals with histamine 1 (H1) receptor. Further details: method as in vendor brief description. Particulars: ref vendor brief description; cited from earlier work.
The next series concerns the target H3-receptor. Further details: method as in vendor brief description. Conditions: ref vendor brief description, cited from earlier work.
The next series concerns the target endothelin receptor-A. Further details: method as in vendor brief description. Conditions: ref vendor brief description; cited from earlier work.
Series [3] addresses N-methyl-D-aspartate (NMDA) receptor. Set-up: method as in vendor brief description. Conditions: ref vendor brief description; cited from earlier work.
In another series the target is mTOR. Further details: method as in vendor brief description. Particulars: ref vendor brief description; cited from earlier work.
The next series deals with TRPA1 channel. Further details: method as in vendor brief description. Particulars: ref vendor brief description, cited from earlier work.
For series [4], the target named is epidermal growth factor receptor (EGFR). Further details: method as in vendor brief description. Conditions: ref vendor brief description; read-out: IC50 EGFR; cited from earlier work.
Another series has as its system Kir2.1. Further details: method as in vendor brief description. Conditions: ref vendor brief description, cited from earlier work.
A further series deals with c-Met. Further details: method as in S-inhibitor catalog. Particulars: vendor brief description; ref S-inhibitor catalog; cited from earlier work.
A further series has as its target Bcl-2. Further details: method as in library vendor description. Particulars: ref library vendor description; cited from earlier work.
In another series the test system is Smoothened (Smo). Set-up: method as in S-inhibitor catalog. Particulars: vendor brief description; ref S-inhibitor catalog; cited from earlier work.
The subject of a further series is CDK. Set-up: method as in S-inhibitor catalog. Particulars: vendor brief description; ref S-inhibitor catalog; cited from earlier work.
For another series, the system named is 5-HT2B. Further details: method as in S-inhibitor catalog. Conditions: vendor brief description; ref S-inhibitor catalog; cited from earlier work.
A further series has as its system JAK1. Further details: method as in vendor brief description. Particulars: ref vendor brief description; cited from earlier work.
A further series concerns hTRPV1. Further details: method as in S-inhibitor catalog. Conditions: in HEK293 cells; vendor brief description; ref S-inhibitor catalog; cited from earlier work.
The next series deals with ATR. Set-up: method as in vendor brief description. Conditions: ref vendor brief description; cited from earlier work.
In the next series the target is 5-HT3A. Set-up: method as in vendor brief description. Conditions: ref vendor brief description; cited from earlier work.
A further series has as its system CXCR4. Set-up: method as in vendor brief description. Conditions: ref vendor brief description; cited from earlier work.
Series [5] in a line: Side effects / survival of uninfected healthy mice. It counts as in vivo, BALB/c mice. Particulars: healthy mice treated with compound, data not shown. As for the experimental part:
All mice were purchased from the Laboratory Animal Center, Wenzhou Medical University, Zhejiang, China. They were bred and handled in strict accordance with the Good Animal Practice requirements of the Animal Ethics Procedures and Guidelines of China. In a preliminary experiment aiming to assess the side effects of compounds, female BALB/c mice (6–8 weeks old, ~20 g) were orally administered with each compound at 50 mg/kg for 5 days and were monitored for 30 days. There was no obvious clinical toxicity after treatment with all compounds during this time period.

The next series concerns T. gondii RH strain. Put plainly: Murine model of acute toxoplasmosis: tissue parasite burden by B1 gene qPCR. Particulars: 7 dpi, 50 mg/kg oral for 5 days, n = 5, compared with vehicle control. It counts as in vivo, BALB/c mice. As for the experimental part:
Meanwhile, the parasite burden in the brain, liver and spleen of infected mice was measured at 7 dpi as described previously. Briefly, whole organs were mixed in lysis buffer (50 mM Tris pH 8.0, 50 mM EDTA, 1% SDS, 50 mg/ml of proteinase K) and incubated overnight at 56 °C. Total genomic DNA from 25 mg of tissue in 100 μl of lysis buffer was then extracted using DNeasy Blood and Tissue Kit (Qiagen, Shanghai, China) following the manufacturer’s instructions. […]. Amplification was performed in a final volume of 20 μl using a ChamQ Universal SYBR qPCR Master Mix (Cat# Q711-02; Vazyme, Nanjing, China). Each reaction contained 10 μl of 2× ChamQ SYBR qPCR Master Mix, 1 μl of template DNA, 8.2 μl of distilled water and 0.4 μM each primer. The following amplification conditions were applied: 30 s at 95 °C; 40 cycles of 95 °C for 10 s, 60 °C for 30 s; and one cycle of 95 °C for 15 s, 60 °C for 1 min and 95 °C for 15 s. The number of parasites was calculated from the standard curve prepared in parallel.
In general terms: In qPCR the cycle at which signal appears reflects the starting amount.

A further series relates to FGFR1. Particulars: read-out: IC50, FGFR1; vendor brief description; ref S-inhibitor catalog; cited from earlier work.
Series [6] deals with Toxoplasma gondii RH-2F tachyzoites. Conditions: preliminary screen of compound library; mean.
A further series has as its system Akt1. Further details: method as in vendor brief description. Conditions: ref vendor brief description; cited from earlier work.
Setting [7] is: read-out: Parasite inhibition (%) mean, preliminary screen of compound library, mean.

What is called IC50 is the point on the concentration scale where inhibition reaches its midpoint. Regarding `C[C@@H]1COC(Nc2ccc3ncnc(Nc4ccc(OCc5nccs5)c(Cl)c4)c3c2)=N1` [ARRY334543], the IC50 is 7 nM in the series with ErbB1 and 2 nM in the series with ErbB2. In series [1] (setting [7]), the inhibition of growth at 5 µM was 12.4%.
For `O=C(O)CCCN1CCC(O[C@@H](c2ccc(Cl)cc2)c2ccccn2)CC1.O=S(=O)(O)c1ccccc1` [Bepotastine Besilate], in series [2], the “pIC50 histamine 1 (H1) receptor” value is given as “Bepotastine is a non-sedating, selective antagonist of histamine 1 (H1) receptor with pIC50 of 5.7”. Also, the inhibition of growth at 5 µM in series [1] (setting [7]) was found to be 50.1%.
Turning to `CNCCc1ccccn1` [Betahistine 2HCl], the IC50 on H3-receptor (read-out: IC50 histamine H3 receptors) was 1900 nM. In addition, the inhibition of growth at 5 µM in [1] (setting [7]) was 3.2%.
What is called Ki is a measure of affinity in units of concentration, obtained from inhibition or displacement. `COc1ccccc1Oc1c(NS(=O)(=O)c2ccc(C(C)(C)C)cc2)nc(-c2ncccn2)nc1OCCO` [Bosentan Hydrate]: the Ki on endothelin receptor-A is […]. Besides, the inhibition of growth at 5 µM in [1] (setting [7]) turned out to be 5.3%.
In the case of `O=C(c1ccc(OCCCc2cnc[nH]2)cc1)C1CC1` [Ciproxifan], the IC50 on H3-receptor (read-out: IC50 H3-receptor) is 9.2 nM. In addition, the inhibition of growth at 5 µM in series [1] (setting [7]) amounted to 0.5%.
For the compound `C[C@]12N[C@H](Cc3ccccc31)c1ccccc12` [Dizocilpine (MK 801)], the Ki in [3] is 30.5 nM. Also, the inhibition of growth at 5 µM in series [1] (setting [7]) was 0.4%.
Turning to `CCNC(=O)Nc1ccc(-c2nc3c(c(N4CCOC[C@@H]4C)n2)CCN(C2COC2)C3)cc1` [GDC-0349], the Ki at mTOR is 3.8 nM. Further, in series [1] (setting [7]), the inhibition of growth at 5 µM is -13.8%.
With `CC(C)c1ccc(NC(=O)Cn2cnc3c2c(=O)n(C)c(=O)n3C)cc1` [HC-030031], the IC50 in the series on TRPA1 channel (AITC-evoked, read-out: IC50 AITC-evoked calcium influx) was 6200 nM; with TRPA1 channel (formalin-evoked, read-out: IC50 formalin-evoked calcium influx), 5300 nM. The inhibition of growth at 5 µM in [1] (setting [7]) was 1.6%.
`CC(C)n1nc(-c2ccc3oc(N)nc3c2)c2c(N)ncnc21` [INK 128 (MLN0128)]: the IC50 in the series with mTOR was 1 nM. For the same compound, the inhibition of growth at 5 µM in [1] (setting [7]) was 27.8%.
Turning to `C#Cc1cccc(Nc2ncnc3cc4c(cc23)OCCOCCOCCO4)c1` [Icotinib], the IC50 in series [4] is 5 nM. Further, the inhibition of growth at 5 µM in series [1] (setting [7]) was 13.6%.
Turning to `COc1ccc(CNCc2cccc3ccccc23)cc1` [ML133 HCl], the values for the IC50 in the series with Kir2.1 (pH 7.4) and in the series with Kir2.1 (pH 8.5) were 1800 nM and 290 nM, respectively. In addition, in series [1] (setting [7]), the inhibition of growth at 5 µM was 0.7%.
Take `Cn1cc(-c2ccc3ncc(Cc4ccc5ncccc5c4)n3n2)cn1` [NVP-BVU972]: the IC50 in the series on c-Met is 14 nM. In addition, in series [1] (setting [7]), the inhibition of growth at 5 µM was 38.8%.
With `COC1=CC(c2cc3ccccc3[nH]2)=N/C1=C\c1[nH]c(C)cc1C` [Obatoclax mesylate (GX15-070)], at Bcl-2, the Ki is 220 nM. In [1] (read-out: Parasite inhibition (%) mean, preliminary screen, mean), the inhibition of growth at 5 µM was 52.7%.
On to `Cc1cnc(-c2cc(N3CCN(C(=O)CCS(C)(=O)=O)CC3)ncc2Cl)c(C)c1` [PF-5274857], for which, in the series on Smoothened (Smo), the IC50 is 5.8 nM and the Ki is 4.6 nM. In addition, the inhibition of growth at 5 µM in series [1] (setting [7]) was -0.8%.
Turning to `COc1ccc(F)c(F)c1C(=O)c1cnc(NC2CCN(S(C)(=O)=O)CC2)nc1N` [R547], in the series with CDK, the IC50 is 80 nM and the Ki is 1 to 3 nM. Besides, the inhibition of growth at 5 µM in series [1] (setting [7]) came out at 11.7%.
Turning to `CC(C)c1cc(-c2ccc(F)c3ccccc23)nc(N)n1` [RS-127445], in the series with 5-HT2B, the “pIC50, 5-HT2B” value is 10.4 and the “pKi, 5-HT2B” value is 9.5. Besides, the inhibition of growth at 5 µM in series [1] (setting [7]) was -0.7%.
For `N#CC[C@@H](C1CCCC1)n1cc(-c2ncnc3[nH]ccc23)cn1` [S-Ruxolitinib], the IC50 in the series with JAK1 was […]. The inhibition of growth at 5 µM in series [1] (setting [7]) is 10.7%.
As for `O=C(Nc1ccccc1Br)N[C@@H]1CCN(c2ccc(C(F)(F)F)cn2)C1` [SB705498], in the series on hTRPV1, the “pIC50, hTRPV1” value is reported as 7.1 and the “pKi, hTRPV1” value is 7.6. The inhibition of growth at 5 µM in series [1] (setting [7]) is 0.6%.
Turning to `CS(=O)(=O)c1ccc(-c2cnc(N)c(C(=O)Nc3ccccc3)n2)cc1` [VE-821], in the series on ATR, the IC50 was 26 nM and the Ki was 13 nM. In addition, in series [1] (setting [7]), the inhibition of growth at 5 µM was -7.9%.
Turning to `CN1CCN(c2nc3ccccc3nc2Cl)CC1` [VUF 10166], the Ki on 5-HT3A was 0.04 nM. In addition, the inhibition of growth at 5 µM in series [1] (setting [7]) came to 0.4%.
For orientation: EC50 means the concentration needed to bring the measured effect to its halfway point. With `c1ccc(NCc2ccc(CNc3ccccn3)cc2)nc1` [WZ 811], in the series with CXCR4, the EC50 was 0.3 nM. Moreover, in [1] (setting [7]), the inhibition of growth at 5 µM is -5.7%.
As for `CCc1nc(N)nc(N)c1-c1ccc(Cl)cc1` [pyrimethamine, Pyrimethamine], the “survival of healthy (uninfected) mice” value in series [5] is on record as “survived”. Moreover, the “parasite burden in brain, liver and spleen” value in the series on T. gondii RH strain was “lowest parasite burden in tissue”.
As for AZD4547, the IC50 in the series on FGFR1 was 0.2 nM.
On to AZD5363, for which the “Parasite inhibition (%) mean” value in [6] is 33.4%. The IC50 in the series on Akt1 is 3 nM.
